Reference: ChEMBL document CHEMBL1201862, “PubChem BioAssay data set” (2004)
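1) Cells in 96-well plates. 2) Compound, 48 h, 5 concentrations. 3) Linear interpolation between surrounding doses. 4) Unreached endpoint = highest concentration. Here, GI50 denotes the concentration required for 50% inhibition of growth.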 Active and inactive are the calls of the source. Rule as the data show it: active = GI50 up to about 1.1 µM and inactive = higher.

How the values were obtained:
Assay in all cases: NCI-60 cell line screen, 48 h
SK-MEL-28 = test system: SK-MEL-28
COLO 205 = test system: COLO 205
OVCAR-3 = test system: OVCAR-3
A549 = test system: A549
CCRF-CEM = test system: CCRF-CEM
U-251 = test system: U-251
DU-145 = test system: DU-145
OVCAR-5 = test system: OVCAR-5
MOLT-4 = test system: MOLT-4
Hs-578T = test system: Hs-578T
NCI-H226 = test system: NCI-H226
HCT-116 = test system: HCT-116
MCF7 = test system: MCF7
OVCAR-8 = test system: OVCAR-8
SF-539 = test system: SF-539
DMS-273 = test system: DMS-273
HT-29 = test system: HT-29
HCT-15 = test system: HCT-15
SN12C = test system: SN12C
PC-3 = test system: PC-3
SF-268 = test system: SF-268
UO-31 = test system: UO-31
SNB-19 = test system: SNB-19
NCI-H460 = test system: NCI-H460
TK-10 = test system: TK-10
SW-620 = test system: SW-620
BT-549 = test system: BT-549
SK-MEL-5 = test system: SK-MEL-5
CAKI-1 = test system: CAKI-1
HOP-62 = test system: HOP-62
K562 = test system: K562
SK-OV-3 = test system: SK-OV-3
DLD-1 = test system: DLD-1
KM-20L2 = test system: KM-20L2
MDA-N = test system: MDA-N
HOP-92 = test system: HOP-92
LXFL 529 = test system: LXFL 529
SNB-78 = test system: SNB-78
T47D = test system: T47D
HL-60 = test system: HL-60
HCC 2998 = test system: HCC 2998
SK-MEL-2 = test system: SK-MEL-2
786-0 = test system: 786-0
OVCAR-4 = test system: OVCAR-4
ACHN = test system: ACHN
SF-295 = test system: SF-295
M14 = test system: M14
LOX IMVI = test system: LOX IMVI
MDA-MB-435 = test system: MDA-MB-435
SR = test system: SR
NCI-H522 = test system: NCI-H522
RPMI-8226 = test system: RPMI-8226
NCI-H23 = test system: NCI-H23
EKVX = test system: EKVX
MDA-MB-231 = test system: MDA-MB-231
M19-MEL = test system: M19-MEL
IGROV-1 = test system: IGROV-1
KM12 = test system: KM12
Malme-3M = test system: Malme-3M
NCI/ADR-RES = test system: NCI/ADR-RES
UACC-62 = test system: UACC-62
UACC-257 = test system: UACC-257
A498 = test system: A498
SNB-75 = test system: SNB-75
RXF 393 = test system: RXF 393
HOP-18 = test system: HOP-18
DMS-114 = test system: DMS-114

With `Cc1ccc(C(=O)Oc2ccccc2)cc1/N=N/N(C)C` the GI50 (SK-MEL-28) was > 100 µM (inactive), the GI50 (COLO 205) was > 100 µM (inactive) and the GI50 (OVCAR-3) was 43.4 µM (inactive). The GI50 (A549) was > 100 µM (inactive), the GI50 (CCRF-CEM) was 91.8 µM (inactive) and the GI50 (U-251) was > 100 µM (inactive). For the same compound, the GI50 (DU-145) was > 100 µM (inactive), the GI50 (OVCAR-5) was > 100 µM (inactive) and the GI50 (MOLT-4) was > 100 µM (inactive). For the same compound, the GI50 (Hs-578T) was > 100 µM (inactive), the GI50 (NCI-H226) was > 100 µM (inactive) and the GI50 (HCT-116) was > 100 µM (inactive). For the same compound, the GI50 (MCF7) was 36.8 µM (inactive), the GI50 (OVCAR-8) was > 100 µM (inactive) and the GI50 (SF-539) was > 100 µM (inactive). The GI50 (DMS-273) was 61.9 µM (inactive), the GI50 (HT-29) was 37.1 µM (inactive) and the GI50 (HCT-15) was over 70.3 µM. The GI50 (SN12C) was > 100 µM (inactive), the GI50 (PC-3) was > 100 µM (inactive) and the GI50 (SF-268) was > 87.7 µM (inactive). The GI50 (UO-31) was > 100 µM (inactive), the GI50 (SNB-19) was > 92.3 µM (inactive) and the GI50 (NCI-H460) was > 100 µM (inactive). The GI50 (TK-10) was > 100 µM (inactive), the GI50 (SW-620) was > 100 µM (inactive) and the GI50 (BT-549) was > 100 µM (inactive). For the same compound, the GI50 (SK-MEL-5) was > 100 µM (inactive), the GI50 (CAKI-1) was > 100 µM (inactive) and the GI50 (HOP-62) was > 100 µM (inactive). For the same compound, the GI50 (K562) was 76.4 µM (inactive), the GI50 (SK-OV-3) was > 100 µM (inactive) and the GI50 (DLD-1) was > 100 µM (inactive). The GI50 (KM-20L2) was 38.3 µM (inactive), the GI50 (MDA-N) was > 100 µM (inactive) and the GI50 (HOP-92) was > 100 µM (inactive). For the same compound, the GI50 (LXFL 529) was > 100 µM (inactive), the GI50 (SNB-78) was > 100 µM (inactive) and the GI50 (T47D) was 71.8 µM (inactive). For the same compound, the GI50 (HL-60) was 78 µM (inactive), the GI50 (HCC 2998) was > 100 µM (inactive) and the GI50 (SK-MEL-2) was > 100 µM (inactive). The GI50 (786-0) was > 100 µM (inactive), the GI50 (OVCAR-4) was > 86.9 µM (inactive) and the GI50 (ACHN) was > 100 µM (inactive). The GI50 (SF-295) was > 69.3 µM (inactive), the GI50 (M14) was > 100 µM (inactive) and the GI50 (LOX IMVI) was 59.8 µM (inactive). The GI50 (MDA-MB-435) was > 100 µM (inactive), the GI50 (SR) was > 100 µM (inactive) and the GI50 (NCI-H522) was 42.7 µM (inactive). For the same compound, the GI50 (RPMI-8226) was > 100 µM (inactive), the GI50 (NCI-H23) was > 58.6 µM (inactive) and the GI50 (EKVX) was > 100 µM (inactive). The GI50 (MDA-MB-231) was > 100 µM (inactive), the GI50 (M19-MEL) was > 100 µM (inactive) and the GI50 (IGROV-1) was > 100 µM (inactive). For the same compound, the GI50 (KM12) was 53.3 µM (inactive), the GI50 (Malme-3M) was > 100 µM (inactive) and the GI50 (NCI/ADR-RES) was > 100 µM (inactive). The GI50 (UACC-62) was > 100 µM (inactive) and the GI50 (UACC-257) was > 100 µM (inactive).
For `O=C1NC(=O)C2(CCc3ccc(N(CCCl)CCCl)cc32)N1` (stereo not given), the GI50 (SK-MEL-28) was 17.5 µM (inactive), the GI50 (COLO 205) was 12.3 µM (inactive) and the GI50 (OVCAR-3) was 18.4 µM (inactive). For the same compound, the GI50 (A549) was 8.36 µM (inactive), the GI50 (CCRF-CEM) was 1.41 µM (inactive) and the GI50 (U-251) was 6.78 µM (inactive). The GI50 (OVCAR-5) was 13.2 µM (inactive), the GI50 (MOLT-4) was 0.931 µM (active) and the GI50 (NCI-H226) was 2.08 µM (inactive). For the same compound, the GI50 (A498) was 16.9 µM (inactive), the GI50 (HCT-116) was 14.1 µM (inactive) and the GI50 (MCF7) was 10.1 µM (inactive). The GI50 (OVCAR-8) was 14.1 µM (inactive), the GI50 (SF-539) was 5.27 µM (inactive) and the GI50 (DMS-273) was 2.94 µM (inactive). For the same compound, the GI50 (HT-29) was 16.4 µM (inactive), the GI50 (HCT-15) was 15.1 µM and the GI50 (SN12C) was 5.37 µM (inactive). The GI50 (SF-268) was 7.36 µM (inactive), the GI50 (UO-31) was 11 µM (inactive) and the GI50 (SNB-19) was 3.37 µM (inactive). The GI50 (NCI-H460) was 3.98 µM (inactive), the GI50 (SNB-75) was 7.48 µM (inactive) and the GI50 (SW-620) was 18.2 µM (inactive). The GI50 (SK-MEL-5) was 13.5 µM (inactive), the GI50 (CAKI-1) was 3.56 µM (inactive) and the GI50 (HOP-62) was 9.91 µM (inactive). For the same compound, the GI50 (K562) was 19.8 µM (inactive), the GI50 (SK-OV-3) was 16.1 µM (inactive) and the GI50 (DLD-1) was 19 µM (inactive). The GI50 (KM-20L2) was 19.5 µM (inactive), the GI50 (HOP-92) was 13.5 µM (inactive) and the GI50 (SNB-78) was 22 µM (inactive). For the same compound, the GI50 (HL-60) was 1.65 µM (inactive), the GI50 (HCC 2998) was 15.9 µM (inactive) and the GI50 (SK-MEL-2) was 21.7 µM (inactive). The GI50 (OVCAR-4) was 19.8 µM (inactive), the GI50 (SF-295) was 7.5 µM (inactive) and the GI50 (LOX IMVI) was 8.99 µM (inactive). The GI50 (NCI-H522) was 5.26 µM (inactive), the GI50 (RPMI-8226) was 19.7 µM (inactive) and the GI50 (RXF 393) was 6.7 µM (inactive). The GI50 (NCI-H23) was 6.5 µM (inactive), the GI50 (EKVX) was 3.15 µM (inactive) and the GI50 (M19-MEL) was 14.1 µM (inactive). For the same compound, the GI50 (HOP-18) was 20.2 µM (inactive), the GI50 (IGROV-1) was 15.9 µM (inactive) and the GI50 (KM12) was 29.3 µM (inactive). For the same compound, the GI50 (NCI/ADR-RES) was 9.77 µM (inactive), the GI50 (UACC-62) was 4.33 µM (inactive) and the GI50 (UACC-257) was 16.4 µM (inactive). For the same compound, the GI50 (DMS-114) was 10.9 µM (inactive).
In the case of `Nc1nc(=S)c2ncn(C3CC(O)C(CO)O3)c2[nH]1` (stereo not given), the GI50 (LXFL 529) is reported as > 100 µM (inactive).
